Results reported in PMC12858405, “Ideal efficacy photoswitching for chromocontrol of TRPC4/5 channel functions in live tissues” (Nature Chemical Biology, 2026).

Assays:
[1] = test system: Th+ neurons of Th-GCaMP6f-ΔTrpc5 mice; assay: GCaMP6f Ca2+ imaging of Th+ neurons in arcuate nucleus brain slices with 355 nm photoswitching, Th-GCaMP6f-ΔTrpc5 (5ko) mice
From the text: slices through the ARC of mice expressing the Ca2+ indicator GCaMP6f in Th+ neurons (Fig. 4),
we investigated (1) whether Ca2+ responses at endogenous TRPC5 expression levels can be
TRPC5 expression using TRPC5-deficient brain slices, (3) whether a dose dependence could be
detected, and (4) whether there are properties in channel activity that can be distinguished between
concentration-response measurements (Fig. 5d).

EA-activated TRPC4 = molecular target: T1, EA-activated TRPC4 (Mus musculus, UniProt Q9QUQ5); assay: FLIPR Ca2+ assay, E isomers silencing EA-activated TRPC4 (HEK293-mTRPC4β-YFP); assay type: cell-based
T1 construct: expressed in transfected cells; host or cells: HEK293-mTRPC4β-YFP
T1 sequence (Q9QUQ5 1-890 isoform Q9QUQ5-2): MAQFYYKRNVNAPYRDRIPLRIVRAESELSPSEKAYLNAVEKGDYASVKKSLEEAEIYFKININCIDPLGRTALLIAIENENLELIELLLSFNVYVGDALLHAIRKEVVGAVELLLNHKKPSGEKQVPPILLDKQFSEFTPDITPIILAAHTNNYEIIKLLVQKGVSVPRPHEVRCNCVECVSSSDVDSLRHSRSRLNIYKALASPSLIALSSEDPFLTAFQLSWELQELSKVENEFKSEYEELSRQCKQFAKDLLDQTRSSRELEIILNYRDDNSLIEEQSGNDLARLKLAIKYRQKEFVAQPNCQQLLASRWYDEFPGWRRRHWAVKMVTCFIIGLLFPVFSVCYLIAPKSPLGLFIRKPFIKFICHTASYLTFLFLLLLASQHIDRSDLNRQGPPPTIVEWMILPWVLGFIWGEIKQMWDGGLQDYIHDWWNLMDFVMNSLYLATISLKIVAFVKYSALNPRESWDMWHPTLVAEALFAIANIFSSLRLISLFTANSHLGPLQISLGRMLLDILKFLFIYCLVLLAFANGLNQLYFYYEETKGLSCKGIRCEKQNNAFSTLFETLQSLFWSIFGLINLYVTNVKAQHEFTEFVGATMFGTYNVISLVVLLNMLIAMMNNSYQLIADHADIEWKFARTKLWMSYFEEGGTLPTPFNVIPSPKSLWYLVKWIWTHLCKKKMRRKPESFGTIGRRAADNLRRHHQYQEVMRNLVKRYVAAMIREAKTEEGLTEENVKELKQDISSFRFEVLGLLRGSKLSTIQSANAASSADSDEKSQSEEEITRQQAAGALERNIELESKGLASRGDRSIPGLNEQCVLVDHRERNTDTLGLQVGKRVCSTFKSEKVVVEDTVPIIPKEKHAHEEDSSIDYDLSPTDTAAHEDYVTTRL
From the text: (2) The EC50 values are reported as the midpoints of unconstrained sigmoidal fits to the FLIPR data (Fig 1l and Supplementary Fig. 2): with different levels of channel activation / blocking and very different Hill slopes across different compounds, isomers, and the two channels. This argues that the midpoint values only capture one of the several important factors describing the […]
We believe that it is possible to derive indicative relative values for binding affinity comparing the E and Z isomers of the same compound using only the combination of FLIPR and ephys data as reported in this paper; this analysis is being developed in a separate paper (see also below).
Supplementary Table 1. Potencies on TRPC4/5 depicted as either simple agonistic potency (blue) or else inhibitory […]
. Z*-values refer to mostly-Z-isomer reached at PSS at 365 nm, E*-values refer to experiments that initially applied 100% E-isomer (thermally relaxed), though in both cases the Ca2+ imaging in FLIPR with Fluo4-AM uses 470 nm excitation, which may over time promote photoswitching towards a PSS that is intermediate between those of pure-365 nm and all-E; this is controlled for in the more reliable ephys measurements). (Table indices: a, data from ref7; b, data from ref2; c, data from ref3; d, data from ref8.) EC50 [nM] (for simple agonism or EA-competitive inhibition)
E-AzPico 90 (vs 30 nM EA) 67 (vs 30 nM EA) […]
orange: inhibitory effect ag.: agonistic effect
1.1.1 From always-active antagonists and agonists towards efficacy photoswitches […]
photoisomerising an azobenzene that is merged in at the C’4 position yielding the compounds […]
deliver (Fig. 1-2) is a powerful support for an efficacy switch interpretation. To indirectly support this further, we also measured the effects of E-AzPico and E-AzHC against EA-activated TRPC4/5. […]
to be an EA-competitive binder5,9,10), so their efficacy as single agent photoswitches results from E/Z-competitive binding that is determined by their PSS. […]
Supplementary Table 2. […] (a Inhibitory effect measured against 30 nM EA; b Inhibitory effect measured against 50 nM EA). […]

SMILES | Ca2+ photoresponse in TRPC5-knockout slices ([1]; 500 nM, 355 nm pulse) | Change in spontaneous Ca2+ activity in TRPC5-deficient Th+ neurons vs before UV ([1]; 1 µM) | IC50 (EA-activated TRPC4; Inhibitory IC50 (versus 30 nM EA) TRPC4, E isomer, thermally relaxed, 30 nM EA) [nM] | IC50 (EA-activated TRPC4; Inhibitory IC50 (versus 50 nM EA) TRPC4, E isomer, 50 nM EA) [nM]
Cn1c(=O)n(CCCO)c(=O)c2c1nc(Oc1ccc(N=Nc3ccccc3)c(Cl)c1)n2Cc1ccc(Cl)cc1 [AzHC] | did not respond | no change | – | –
Cn1c(=O)n(CCCO)c(=O)c2c1nc(Oc1ccc(/N=N/c3ccccc3)c(OC(F)(F)F)c1)n2Cc1ccc(Cl)cc1 [E-AzPico] | – | – | 90 | 86
